The term solubility (kinetic) denotes solubility judged after dilution from a stock solution rather than from solid.

Data on 102 compounds can be found in PubChem BioAssay AID1996.

Values after ≈ are worked out from the molar mass of the structure shown. Non-standard residues stand in square brackets, D forms with d. Residues, ends and D or L forms follow the SMILES beside them. ξ: configuration not given here. *: point of attachment. Cbz = O=C(OCc1ccccc1)*; ξV = CC(C)C(N)C(=O)O Some results are limits rather than exact numbers.

For this data set the following is noted: buffer; pH 7.4; 200.0 µM.
In turn, `CC(C)c1ccc(OCC(=O)NC(C)c2ccccc2)cc1` (configuration not stated) registered a solubility (kinetic) of 16.5 µg/mL (≈ 55.5 µM).
For `Nc1cn(C2OC(CO)C(O)C2O)c(=O)[nH]c1=O` (configuration not stated) the value was over 38.9 µg/mL; for `O=C(COC(=O)[C@@H]1CCCN1C(=O)c1cccs1)Nc1cccc([N+](=O)[O-])c1`, 2.8 µg/mL (≈ 6.94 µM).
As to `Cc1ncc(CN2CCCC(C(=O)c3cccc(Cl)c3)C2)s1` (configuration not stated), the kinetic solubility came out at 43.2 µg/mL (≈ 129 µM).
For `Cc1cc(F)ccc1NC(=O)C1CCCO1` (configuration not stated) the value was 33.3 µg/mL (≈ 149 µM).
Take `N#CC1=C(N)N(c2ccc(Cl)c(Cl)c2)C(=O)C1`: the kinetic solubility is over 40.2 µg/mL.
On to `CCCCNC(=O)CSc1nc2ccc(C)cc2[nH]1`, for which the kinetic solubility is over 41.6 µg/mL.
`O=C(CSc1nccc(=O)[nH]1)NC1CCCCCC1` displayed a kinetic solubility of over 42.2 µg/mL.
In the case of `COc1ccc(CNC(=O)COC(=O)c2ccc(S(=O)(=O)NCc3ccco3)cc2)cc1`, the kinetic solubility amounted to 8 µg/mL (≈ 17.4 µM).
As to `CCCCc1ccc(NC(=O)Cn2c(=O)c(N3CCCCC3)c(N)n(C)c2=O)cc1`, the solubility (kinetic) stood at 26.6 µg/mL (≈ 64.3 µM).
On to `Cc1cc(CSCc2ccc(Cl)cc2)no1`, for which the solubility (kinetic) amounted to 2.2 µg/mL (≈ 8.67 µM).
For `CCNC(=O)NNC(=O)C1CC(c2cccnc2)=NO1` (configuration not stated) the value was over 41.6 µg/mL.
For `CCC(=O)Nc1ccc2c(c1)nc(CCN1CCCCC1)n2C` the value was 43.2 µg/mL (≈ 137 µM).
For `CCOc1ccc2oc(C(=O)NC(C)(C)CC)c(C)c2c1` the value was 11.5 µg/mL (≈ 39.7 µM); for `Nc1cc(=O)[nH]c(SCc2ccccc2Cl)n1`, 6.9 µg/mL (≈ 25.8 µM).
The compound `Cc1cccc(OCCOC(=O)c2c(-c3ccccc3)noc2C)c1` yielded a solubility (kinetic) of 1.1 µg/mL (≈ 3.26 µM).
For `CC1CCN(CCn2c(=S)[nH]c3ccccc3c2=O)CC1`, the solubility (kinetic) amounted to 43.3 µg/mL (≈ 143 µM).
Take `COC(=O)c1sccc1NC(=O)C1CC1`: the kinetic solubility came out at 21.8 µg/mL (≈ 96.8 µM).
`CC(C)Oc1ccc(C(=O)Nc2cccc3cccnc23)cc1` had a kinetic solubility of 1.1 µg/mL (≈ 3.59 µM).
With `Cc1csc(NC(=S)NC(=O)c2ccccc2)n1` the figure was 1 µg/mL (≈ 3.61 µM); with `CCOc1cc(N2CCOCC2)c(OCC)cc1NC(=O)COC(=O)c1ccc(Cl)nc1`, 5.2 µg/mL (≈ 11.2 µM); with `Cc1ccc([N+](=O)[O-])cc1NC(=O)Cc1ccc(F)cc1`, under 0.3 µg/mL.
For `Cc1cccc(N(C)S(=O)(=O)c2ccc3c(c2)NC(=O)CC(=O)N3)c1`, the solubility (kinetic) is over 53.9 µg/mL.
For `COc1ccc(C2NC(=O)NC3=C2CCc2ccccc23)cc1` (configuration not stated) the value was 18.1 µg/mL (≈ 59.1 µM); for `O=C(Nc1ccc(-c2cn3c(n2)SCC3)cc1)c1ccco1`, 24.1 µg/mL (≈ 77.4 µM).
For `Cc1nc(OCC(C)C)c2sc3nc4c(cc3c2n1)COC(C)(C)C4` the value was 14.6 µg/mL (≈ 40.8 µM); for `CCCC(=O)Nc1cc(C(=O)O)ccc1Sc1ccc(C)cc1`, over 49.4 µg/mL; for `CCOc1ccc(-c2cnc3n2CCCCC3)cc1`, 32 µg/mL (≈ 125 µM).
With `O=C1CC(N2CCSCC2)C(=O)N1c1ccc(F)cc1` (configuration not stated) the figure was over 44.2 µg/mL; with `CCOc1ccc(S(=O)(=O)NCCCn2ccnc2)cc1`, 45.4 µg/mL (≈ 147 µM); with `CCOc1ccc(Cl)cc1CNCCCSc1ncccn1`, 43 µg/mL (≈ 127 µM).
For `Cc1ccc(S(C)(=O)=NC(=O)c2cc(C)on2)cc1` (configuration not stated), the kinetic solubility was determined as 41.5 µg/mL (≈ 149 µM).
The compound `O=C(CNc1cccc([N+](=O)[O-])c1)NCCCc1ccccc1` gave a kinetic solubility of 8 µg/mL (≈ 25.5 µM).
With `O=C(NC(=S)NC(CO)Cc1ccccc1)c1ccc(F)cc1` (configuration not stated) the figure was 4.9 µg/mL (≈ 14.7 µM).
In the case of `COC(=O)CNC(=O)C(NC(=O)OCc1ccccc1)C(C)C` (configuration not stated) (Cbz-[ξV]-Gly-OMe), the solubility (kinetic) is over 48.4 µg/mL.
With `Brc1ccc(-c2ncc3ccccn23)cc1` the figure was 29.3 µg/mL (≈ 107 µM); with `COc1ccc(-c2csc(Nc3ccc(C)cn3)n2)cc1OC`, 1.3 µg/mL (≈ 3.97 µM); with `CC(Sc1nc(-c2ccco2)nc2c1c(=O)n(C)c(=O)n2C)C(=O)O` (configuration not stated), over 54.4 µg/mL.
Turning to `Cc1cnc(C(=O)NCc2ccc(F)cc2)cn1`, the kinetic solubility is over 36.8 µg/mL.
In turn, `CCOC(=O)N1CCC(NC(=O)c2ccccc2C(=O)O)CC1` showed a kinetic solubility of over 48.1 µg/mL.
In turn, `COc1cc(CN2CCCN(C)CC2)cc([N+](=O)[O-])c1O` gave a kinetic solubility of 33.9 µg/mL (≈ 115 µM).
With `CC(C)C(=O)Nc1cc(S(=O)(=O)N2CCOCC2)ccc1N1CCCCC1` the figure was 49 µg/mL (≈ 124 µM); with `Cc1ccc2cc(C)c(N3CCN(c4ccc(F)cc4)CC3)nc2c1`, under 0.2 µg/mL.
With `Cc1nc(Nc2ccccc2)sc1C(=O)c1ccc(F)cc1` the figure was 2.4 µg/mL (≈ 7.68 µM); with `CC(=O)c1cccc(NC(=O)c2ccc3c(c2)CCCC3)c1`, 0.8 µg/mL (≈ 2.73 µM); with `Cn1c(=O)c([N+](=O)[O-])c(-n2cnc3ccccc32)c2ccccc21`, over 48 µg/mL.
With `CC(=O)Nc1ncc(Cc2ccc(Cl)cc2Cl)s1` the figure was 1 µg/mL (≈ 3.32 µM); with `Cc1ccc2c(C(=O)CN3CC(C)CC(C)C3)c(C)[nH]c2c1` (configuration not stated), 38.6 µg/mL (≈ 129 µM).
`CS(=O)(=O)N(CC(=O)NCCSCc1cccc(Cl)c1)c1ccc(F)cc1` registered a kinetic solubility of 38 µg/mL (≈ 88.2 µM).
`O=C(Cc1ccc(Cl)cc1)Nc1ccccn1`: the solubility (kinetic) is over 37 µg/mL.
The compound `Cc1snc(SCc2ccc(Cl)cc2)c1C#N` returned a solubility (kinetic) of under 0.3 µg/mL.
As to `O=C(COc1ccccc1)Nc1nc2c(s1)CCCC2`, the solubility (kinetic) was determined as 3.7 µg/mL (≈ 12.8 µM).
`COc1ccc(S(=O)(=O)N2CCCCCC2)cc1NC(=O)Cc1ccc(OC)c(OC)c1` came in with a kinetic solubility of 22.1 µg/mL (≈ 47.8 µM).
With `CCOC(=O)C1CCCN(C(=O)c2cc3cc(OC)c(OC)cc3[nH]2)C1` (configuration not stated) the figure was 17.5 µg/mL (≈ 48.6 µM); with `O=C(Nc1cccc2ccccc12)N1CCN(c2ncccn2)CC1`, over 50 µg/mL; with `O=C(Nc1ccc(NC(=O)c2ccccc2O)cc1)Nc1ccc(F)cc1F`, 1.1 µg/mL (≈ 2.87 µM).
With `O=C(CN1C(=O)NC2(CCCCCC2)C1=O)NCc1ccccc1Cl` the figure was over 54.6 µg/mL; with `O=C(NCc1cccc(F)c1)C1CCC(=O)N(C2CC2)C1` (configuration not stated), over 43.6 µg/mL.
With `[Cl-].c1ccc(Cn2c[n+](Cc3ccccc3)c3ccccc32)cc1` the figure was 42.9 µg/mL; with `CCN(CC(=O)Nc1c(F)cccc1F)C(=O)Cc1c[nH]c2ccccc12`, over 55.7 µg/mL; with `COc1ccc2oc(C(=O)NCCC(C)C)c(C)c2c1`, 1.8 µg/mL (≈ 6.54 µM).
Compound `O=C(O)COCC(=O)Nc1cc(C(F)(F)F)cc(C(F)(F)F)c1` registered a kinetic solubility of over 51.8 µg/mL.
Compound `COc1cc(OC)c(NC(=O)C2CCCO2)cc1Cl` (configuration not stated) displayed a solubility (kinetic) of over 42.9 µg/mL.
Take `CCN(CC)S(=O)(=O)c1cccc(C(=O)Nc2cc(C)on2)c1`: the kinetic solubility was 13.4 µg/mL (≈ 39.7 µM).
Take `COCCCNc1nc2ccccc2[nH]c1=O`: the kinetic solubility is over 35 µg/mL.
For `CC(=O)Nc1ccc(NS(=O)(=O)c2ccc(C)cc2)c([N+](=O)[O-])c1` the value was over 52.4 µg/mL.
`C/C(Cl)=C/Cc1c(C)[nH]c2c(ccc3ccccc32)c1=O` yielded a kinetic solubility of under 0.6 µg/mL.
Turning to `C=CCNC(=S)NC(CC(=O)OC)c1ccc2c(c1)OCO2` (configuration not stated), the solubility (kinetic) turned out to be 30.3 µg/mL (≈ 94 µM).
For `Cc1ccc(NC(=O)Cc2nc(COC(=O)c3c(F)cccc3Cl)cs2)cc1` the value was 7.5 µg/mL (≈ 17.9 µM); for `CCC(C)NC(=O)c1cn(-c2cccc(OC)c2)c(=O)c2ccccc12` (configuration not stated), 46.9 µg/mL (≈ 134 µM); for `CCOc1ccc(C(=O)NCc2ccco2)cc1Cl`, 34.5 µg/mL (≈ 123 µM).
For `Cc1ccc(-c2noc(-c3c(C)noc3C)n2)cc1` the value was under 0.2 µg/mL; for `FC(F)(F)c1nc(=S)c2ccccc2[nH]1`, 34.5 µg/mL (≈ 150 µM); for `CCn1cc(CCCC(=O)NCc2cccnc2)c2ccccc21`, over 48.2 µg/mL.
With `CCc1ccccc1NC(=O)c1cc(C)no1` the figure was over 34.5 µg/mL; with `CN(C(=O)c1ccccc1)c1nccnc1C#N`, over 35.7 µg/mL; with `COc1ccc(NS(=O)(=O)c2ccc3oc(=S)[nH]c3c2)cc1`, over 50.5 µg/mL.
`CCOC(=O)N1CCc2c(sc3nc[nH]c(=O)c23)C1` came in with a kinetic solubility of 38.9 µg/mL (≈ 139 µM).
With `CN(C)/C=C1/OC(=O)C(C#N)=C1c1ccc(Cl)cc1` the figure was 2.4 µg/mL (≈ 8.74 µM); with `O=C(NC(=S)NCc1ccccc1)c1ccccc1Br`, under 0.4 µg/mL.
The compound `Cc1nc(-c2ccccc2)sc1C(=O)/C=C/N(C)C` registered a solubility (kinetic) of 36.3 µg/mL (≈ 133 µM).
With `CNC(=O)c1cccc2nc3ccccc3nc12` the figure was over 35.6 µg/mL; with `COc1cc(NC(=O)COC(=O)c2cc(S(=O)(=O)N3CCOCC3)ccc2F)cc(OC)c1`, 34.2 µg/mL (≈ 70.9 µM); with `CC1CN(C(=O)CS(=O)(=O)Cc2ccc(Cl)cc2)CC(C)O1` (configuration not stated), 46.8 µg/mL (≈ 135 µM).
On to `Cc1nc(NC(=O)c2ccccc2O)sc1C`, for which the solubility (kinetic) is 10.2 µg/mL (≈ 41.1 µM).
With `Cc1[nH]c2ccccc2c1/C=C(\C#N)C(=O)NCC1CCCO1` (configuration not stated) the figure was 20.6 µg/mL (≈ 66.6 µM); with `CCOC(=O)[C@H](CCc1ccccc1)N[C@@H](C)C(=O)N1Cc2ccccc2C[C@H]1C(=O)O.Cl`, over 71.2 µg/mL.
For `CC(=O)Nc1ccc(NC(=O)COc2ccc(-c3ccccc3)cc2)cc1` the value was under 0.4 µg/mL; for `O=S(=O)(c1ccc(Cl)cc1)N1CCCC(C(F)(F)F)C1` (configuration not stated), 1 µg/mL (≈ 3.05 µM); for `COc1ccc(OCCNC(=O)CCCO)cc1`, 4 µg/mL (≈ 15.8 µM).
For `O=C(NCCc1ccc(C(F)(F)F)cc1)c1ccc(Cl)nc1` the value was 6.6 µg/mL (≈ 20.1 µM); for `O=C(NC1CCCC1)c1cc(-c2ccc(F)cc2)on1`, 2.1 µg/mL (≈ 7.66 µM).
`COc1ccc(C(=O)Nc2ccncc2)cc1[N+](=O)[O-]`: the solubility (kinetic) came out at 36 µg/mL (≈ 132 µM).
`C=CCn1c(O)c(C(CC)=Nc2cccc(C(=O)O)c2)c(=O)[nH]c1=O` displayed a kinetic solubility of over 51.5 µg/mL.
With `Cn1cc(C(=O)OCC(=O)NC2(C#N)CCCC2)c2ccccc21` the figure was over 48.8 µg/mL; with `CCOC(=O)N1CCN(C(=O)c2c(N)no[n+]2[O-])CC1`, over 42.8 µg/mL; with `O=C(NCCCN1CCOCC1)C(=O)NCc1ccccc1`, over 45.8 µg/mL.
The compound `O=C(O)/C=C/C(=O)Nc1ccc2c(c1)C(=O)c1ccccc1C2=O` came in with a solubility (kinetic) of over 48.2 µg/mL.
Compound `CCN(C(=O)CSc1nc2ccccc2c(=O)n1-c1cccc(C)c1)C1CCS(=O)(=O)C1` (configuration not stated) registered a solubility (kinetic) of 2.8 µg/mL (≈ 5.94 µM).
Turning to `O=C(Cc1ccc(Br)cc1)NCCCn1ccnc1`, the solubility (kinetic) was over 48.3 µg/mL.
`O=C(OCC(=O)N1CCC(Cc2ccccc2)CC1)c1cccnc1Cl` showed a kinetic solubility of 46.2 µg/mL (≈ 124 µM).
Take `OC1NC(=S)N(c2ccccc2)C1O` (configuration not stated): the kinetic solubility was over 31.5 µg/mL.
